This note sets out measurements from ChEMBL document CHEMBL1150698, “Placidenes C-F, novel alpha-pyrone propionates from the Mediterranean sacoglossan Placida dendritica” (J Nat Prod, 2003).

The structures appear in SMILES notation.

In the first data set the test system is Gambusia affinis. Kind of data set: Toxicity in Gambusia affinis. Format: organism-based. The conditions noted are these: in vivo.
Turning to `CCCC(C)/C=C/c1oc(=O)cc(OC)c1C` (configuration not stated) [PLACIDENE D], the Activity entry is listed as “Non-toxic”.

Take `C/C=C(C)\C=C(/C)c1oc(=O)c(C)c(OC)c1C` [PLACIDENE F]: the Activity entry is “Non-toxic”.

Take `CC/C=C(C)\C=C(/C)c1oc(OC)c(C)c(=O)c1C` [PLACIDENE A]: the Activity result is reported as “Non-toxic”.

Turning to `CCCC(C)c1oc(=O)cc(OC)c1C` (configuration not stated) [PLACIDENE E], the Activity result was “Non-toxic”.

As for `CCC(C)/C=C/c1oc(=O)cc(OC)c1C` (configuration not stated) [PLACIDENE C], the Activity entry is reported as “Non-toxic”.

System in the next data set: not listed separately
Kind of data set: Stability at pH 1 to 5. The conditions noted are these: buffer. The format is physicochemical.
For `CC/C=C(C)\C=C(/C)c1oc(OC)c(C)c(=O)c1C` [PLACIDENE A], the Stability entry is reported as “Stable”.

`CCC(C)/C=C/c1oc(=O)cc(OC)c1C` (configuration not stated) [PLACIDENE C]: the Stability entry was “Stable”.
